Values after ≈ are worked out from the molar mass of the structure shown.
What was measured:
[1] = target: KRAS G12C (GMPPNP-loaded) and cRAF (Ras-binding domain) interaction (Homo sapiens (Human), UniProt P01116, C118S/C51S/C80L/G12C); experiment: Inhibition of KRAS G12C and cRAF binding (AlphaScreen); conditions: KRAS G12C loaded with GMPPNP, cRaf RBD, 2 hours preincubation; read-out: Raf-1 RBD K-Ras IC50
Procedure, shortened: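 AlphaScreen readout (680 nm excitation, 570 nm emission) of RBD binding after a 60-90 min bead step at room temperature. This step follows 2 h compound exposure of GMPPNP-preloaded KRAS G12C in Hepes pH 7.4 buffer with MgCl2 and 10 μM GMPPNP.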

[2] = Determination of logD (1-octanol / phosphate buffer pH 7.4); format: physicochemical; conditions: for logD: 1-octanol/phosphate buffer, pH 7.4, pH 7.4, 1-octanol/phosphate buffer, read-out: Log D, pH 7.4
Procedure, shortened: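 Each phase analysed by LCMS after 1 h shaking at 800 rpm and centrifugation, room temperature. Phases were mutually saturated 1-octanol and 100 mM phosphate buffer at pH 7.4. LogD derived from the phase concentrations.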

[3] = Determination of kinetic solubility (pH 7.4); format: physicochemical; conditions: for solubility kinetic at 2 h: phosphate buffer, pH 7.4, aqueous buffer, kinetic from dmso stock, 50 mM phosphate buffer pH 7.4, read-out: Ksol, pH 7.4
Procedure, shortened: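 Solubility taken from filtrate peak areas on a calibration curve (HPLC-UV, LC-MS/MS). Before filtration and centrifugation, compound was shaken for 2 h at room temperature in pH 7.4 50 mM phosphate buffer.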

Chain of KRAS G12C (GMPPNP-loaded) and cRAF (Ras-binding domain) interaction (P01116 other isoform, or with tags, fused parts or gaps G12C/C51S/C80L/C118S): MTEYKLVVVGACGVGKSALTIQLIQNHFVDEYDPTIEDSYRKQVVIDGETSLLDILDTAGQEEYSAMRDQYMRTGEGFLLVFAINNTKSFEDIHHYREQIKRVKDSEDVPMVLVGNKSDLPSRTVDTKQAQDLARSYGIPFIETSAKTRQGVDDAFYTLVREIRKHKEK

| SMILES | IC50 [1] [nM] | logD [2] | solubility kinetic at 2 h [3] [µg/mL] | Log D, pH 7.4 ([2]; pH 7.4, 1-octanol/phosphate buffer) | Ksol, pH 7.4 (ug/mL) ([3]; 50 mM phosphate buffer pH 7.4) |
| --- | --- | --- | --- | --- | --- |
| N#CC[C@H]1CN(c2nc(OCC34CCCN3CCC4)nc3c2CCN(c2cccc4cccc(Cl)c24)C3)CCN1C(=O)/C=C/CN1[C@@H]2CC[C@H]1COC2 [Compound 168] | < 10 | 2.59 | 104 (≈ 142 µM) |  |  |
| C[C@H]1CN(C/C=C/C(=O)N2CCN(c3nc(OC[C@@]45CCCN4C[C@H](F)C5)nc4c(F)c(-c5cccc6ccc(F)c(F)c56)ncc34)C[C@@H]2CC#N)C[C@H](C)O1 [Compound 240] | 10 to 100 | 3.42 | 49.5 (≈ 64 µM) |  |  |
| Cc1noc(/C=C/C(=O)N2CCN(c3nc(OCC45CCCN4CCC5)nc4c3CCN(c3cccc5cccc(Cl)c35)C4)C[C@@H]2CC#N)n1 [Compound 32] | 10 to 100 |  |  | 3.62 | 79.78 |
| N#CC[C@H]1CN(c2nc(OCC34CCCN3CCC4)nc3c2CCN(c2cccc4cccc(Cl)c24)C3)CCN1C(=O)/C=C/CN1CC2C(C1)C2(F)F (stereo partly drawn) [Compound 193] | < 10 | 3.13 | 97.3 (≈ 131 µM) |  |  |
| N#CC[C@H]1CN(c2nc(OCC34CCCN3CCC4)nc3c2CCN(c2cccc4cccc(Cl)c24)C3)CCN1C(=O)/C=C/CN1CCS(=O)(=O)CC1 [Compound 169] | 10 to 100 | 2.02 | 108 (≈ 142 µM) |  |  |
| N#CC[C@H]1CN(c2nc(OCC34CCCN3CCC4)nc3c2CCN(c2cccc4cccc(Cl)c24)C3)CCN1C(=O)/C=C/CN1C[C@H]2COC[C@H]2C1 [Compound 195] | 10 to 100 | 2.44 | 149 (≈ 202 µM) |  |  |
| CO[C@H]1CCN(C/C=C/C(=O)N2CCN(c3nc(OC[C@@]45CCCN4C[C@H](F)C5)nc4c(F)c(-c5cccc(Cl)c5C(F)(F)F)ncc34)C[C@@H]2CC#N)C1 [Compound 309] | 10 to 100 | 2.79 | 141 (≈ 182 µM) |  |  |
| C#Cc1c(F)ccc2cccc(-c3ncc4c(N5CCN(C(=O)/C=C/CN6CC7CC(C6)O7)[C@@H](CC#N)C5)nc(OC[C@@]56CCCN5C[C@H](F)C6)nc4c3F)c12 [Compound 256] | < 10 | 2.71 | 101 (≈ 133 µM) |  |  |
| N#CC[C@H]1CN(c2nc(OCC34CCCN3CCC4)nc3c2CCN(c2cccc4cccc(Cl)c24)C3)CCN1C(=O)/C=C/c1ncccn1 [Compound 35] | 100 to 500 | 2.77 | 111 (≈ 161 µM) |  |  |
| CN1CCN(C/C=C/C(=O)N2CCN(c3nc(OCC45CCCN4CCC5)nc4c3CCN(c3cccc5cccc(Cl)c35)C4)C[C@@H]2CC#N)CC1 [Compound 162] | 10 to 100 | 1.97 | 133 (≈ 183 µM) |  |  |
| Cc1nccc(/C=C/C(=O)N2CCN(c3nc(OC[C@@]45CCCN4C[C@H](F)C5)nc4c(F)c(-c5nc(N)cc6cccc(F)c56)ncc34)C[C@@H]2CC#N)n1 [Compound 146] | < 10 | 2.14 | 78.1 (≈ 106 µM) |  |  |
| N#CC[C@H]1CN(c2nc(OC[C@@]34CCCN3C[C@H](F)C4)nc3c(F)c(-c4cccc5ccc(F)c(F)c45)ncc23)CCN1C(=O)/C=C/CN1CC2CCC(C1)O2 [Compound 249] | < 10 | 3.38 | 71.1 (≈ 92.2 µM) |  |  |
| C[C@H]1CN(C/C=C/C(=O)N2CCN(c3nc(OC[C@@]45CCCN4C[C@H](F)C5)nc4c(F)c(-c5cccc6cccc(F)c56)ncc34)C[C@@H]2CC#N)C[C@H](C)O1 [Compound 235] | 10 to 100 | 3.75 | 72.5 (≈ 96.1 µM) |  |  |
| CC(C)(C)c1noc(/C=C/C(=O)N2CCN(c3nc(OC[C@@]45CCCN4C[C@H](F)C5)nc4c(F)c(-c5cccc6cccc(Cl)c56)ncc34)C[C@@H]2CC#N)n1 [Compound 34] | 100 to 500 | 5.11 | 0.01 (≈ 0.013 µM) |  |  |
| N#CC[C@H]1CN(c2nc(OCC34CCCN3CCC4)nc3c2CCN(c2cccc4cccc(Cl)c24)C3)CCN1C(=O)/C=C/CN1CCN(C2COC2)CC1 [Compound 317] | < 10 | 2.01 | 114 (≈ 148 µM) |  |  |
| N#CC[C@H]1CN(c2nc(OC[C@@]34CCCN3C[C@H](F)C4)nc3c(F)c(-c4cccc5cccc(Cl)c45)ncc23)CCN1C(=O)/C=C/CN1CCOC2CC21 (stereo partly drawn) [Compound 274] | 10 to 100 | 3.14 | 76.2 (≈ 101 µM) |  |  |
| Cn1cc(/C=C/C(=O)N2CCN(c3nc(OCC45CCCN4CCC5)nc4c3CCN(c3cccc5cccc(Cl)c35)C4)C[C@@H]2CC#N)nn1 [Compound 117] | > 500 | 2.65 | 112 (≈ 161 µM) |  |  |

| SMILES | IC50 [1] [nM] | logD [2] | solubility kinetic at 2 h [3] [µg/mL] | Log D, pH 7.4 ([2]; pH 7.4, 1-octanol/phosphate buffer) | Ksol, pH 7.4 (ug/mL) ([3]; 50 mM phosphate buffer pH 7.4) |
| --- | --- | --- | --- | --- | --- |
| C[C@H]1CN(C/C=C/C(=O)N2CCN(c3nc(OC[C@@]45CCCN4C[C@H](F)C5)nc4c(F)c(-c5cccc(Cl)c5C(F)(F)F)ncc34)C[C@@H]2CC#N)C[C@H](C)O1 [Compound 308] | 10 to 100 | 3.75 | 80.5 (≈ 102 µM) |  |  |
| N#CC[C@H]1CN(c2nc(OC[C@@]34CCCN3C[C@H](O)C4)nc3c(F)c(-c4cccc5cccc(Cl)c45)ncc23)CCN1C(=O)/C=C/CN1CCOCC1 [Compound 319] | < 10 | 1.54 | 123 (≈ 166 µM) |  |  |
| N#CC[C@H]1CN(c2nc(OC[C@@]34CCCN3C[C@H](F)C4)nc3c(F)c(-c4cccc5cccc(Cl)c45)ncc23)CCN1C(=O)/C=C/CN1CCCOCC1 [Compound 109, 2-((S)-1-((E)-4-(1,4-oxazepan-4-yl)but-2-enoyl)-4-(7-(8-chloronaphthalen-1-yl)-8-fluoro-2-(((2R,7aS)-2-fluorohexahydro-1H-pyrrolizin-7a-yl)methoxy)pyrido[4,3-d]pyrimidin-4-yl)piperazin-2-yl)acetonitrile] | < 10 | 2.6 | 127 (≈ 167 µM) |  |  |
| N#CC[C@H]1CN(c2nc(OCC34CCCN3CCC4)nc3c2CCN(c2cccc4cccc(Cl)c24)C3)CCN1C(=O)/C=C/c1nc(C2COC2)no1 [Example 6, (S,E)-2-(4-(7-(8-chloronaphthalen-1-yl)-2-((tetrahydro-1H-pyrrolizin-7a(5H)-yl)methoxy)-5,6,7,8-tetrahydropyrido[3,4-d]pyrimidin-4-yl)-1-(3-(3-(oxetan-3-yl)-1,2,4-oxadiazol-5-yl)acryloyl)piperazin-2-yl)acetonitrile] | 10 to 100 | 2.72 | 86.4 (≈ 117 µM) |  |  |
| N#CC[C@H]1CN(c2nc(OC[C@@]34CCCN3C[C@H](F)C4)nc3c(F)c(-c4cccc5cccc(F)c45)ncc23)CCN1C(=O)/C=C/CN1CCSCC1 [Compound 232] | < 10 | 3.68 | 34.8 (≈ 46.9 µM) |  |  |
| Cc1cc(N)nc(-c2ncc3c(N4CCN(C(=O)/C=C/c5nc(C(C)C)no5)[C@@H](CC#N)C4)nc(OC[C@@]45CCCN4C[C@H](F)C5)nc3c2F)c1C(F)(F)F [Compound 135] | 10 to 100 | 3.42 | 94.6 (≈ 123 µM) |  |  |
| C[C@@H]1CN(C/C=C/C(=O)N2CCN(c3nc(OC[C@@]45CCCN4C[C@H](F)C5)nc4c(F)c(-c5cccc6ccc(F)c(F)c56)ncc34)C[C@@H]2CC#N)C[C@H](C)O1 [Compound 239] | 10 to 100 | 2.53 | 92.6 (≈ 120 µM) |  |  |
| Cn1cnc(/C=C/C(=O)N2CCN(c3nc(OCC45CCCN4CCC5)nc4c3CCN(c3cccc5cccc(Cl)c35)C4)C[C@@H]2CC#N)n1 [Compound 21] | > 500 | 2.48 | 89.8 (≈ 130 µM) |  |  |
| CC(C)c1noc(/C=C/C(=O)N2CCN(c3nc(OCC45CCCN4CCC5)nc4c(F)c(-c5cccc6cccc(Cl)c56)ncc34)C[C@@H]2CC#N)n1 [Compound 120] | 100 to 500 | 3.21 | 26.5 (≈ 36 µM) |  |  |
| Cc1cc(N)nc([C@H]2Cc3nc(OC[C@@]45CCCN4C[C@H](F)C5)nc(N4CCN(C(=O)/C=C/CN(C)C)[C@@H](CC#N)C4)c3C[C@@H]2C)c1C(F)(F)F [Compound 323] | 100 to 500 | 2.71 | 74.5 (≈ 104 µM) |  |  |
| N#CC[C@H]1CN(c2nc(OCC34CCCN3CCC4)nc3c2CCN(c2cccc4cccc(Cl)c24)C3)CCN1C(=O)/C=C/CN1CCCOCC1 [Compound 163] | < 10 | 2.44 | 130 (≈ 180 µM) |  |  |
| N#CC[C@H]1CN(c2nc(OC[C@@]34CCCN3C[C@H](F)C4)nc3c(F)c(-c4cccc5cccc(F)c45)ncc23)CCN1C(=O)/C=C/CN1CC2CC(C1)O2 [Compound 237] | < 10 | 2.87 | 67 (≈ 90.7 µM) |  |  |
| N#CC[C@H]1CN(c2nc(OCC34CCCN3CCC4)nc3c(F)c(-c4cccc5cccc(Cl)c45)ncc23)CCN1C(=O)/C=C/c1nc(C(F)F)no1 [Compound 27] | < 10 | 2.52 | 103 (≈ 138 µM) |  |  |
| N#CC[C@H]1CN(c2nc(OCC34CCCN3CCC4)nc3c2CCN(c2cccc4cccc(Cl)c24)C3)CCN1C(=O)/C=C/CN1C[C@@H]2C[C@H]1CO2 [Compound 62] | < 10 | 2.06 | 95.1 (≈ 131 µM) |  |  |
| N#CC[C@H]1CN(c2nc(OC[C@@]34CCCN3C[C@H](F)C4)nc3c(F)c(-c4cccc5cccc(Cl)c45)ncc23)CCN1C(=O)/C=C/c1nc(C(F)F)no1 [Compound 20] | < 10 | 2.61 | 0.28 (≈ 0.367 µM) |  |  |
| CN1CC[C@@H]1/C=C/C(=O)N1CCN(c2nc(OC[C@@]34CCCN3C[C@H](F)C4)nc3c(F)c(-c4cccc(Cl)c4C(F)(F)F)ncc23)C[C@@H]1CC#N [Compound 311] | 100 to 500 | 2.54 | 128 (≈ 175 µM) |  |  |
